From ChEMBL document CHEMBL1800055, “Orally active MMP-1 sparing α-tetrahydropyranyl and α-piperidinyl sulfone matrix metalloproteinase (MMP) inhibitors with efficacy in cancer, arthritis, and cardiovascular disease” (J Med Chem, 2010)
Activity calls are given as the source filed them. No cut-off for these calls is given here.

Columns and labels:
[1] = Oral bioavailability in female dog at 20 mg/kg after 24 hrs; format: ADME, organism-based, Canis lupus familiaris; settings: in vivo
Matrilysin = target: T1, Matrilysin (Homo sapiens, UniProt P09237)
T1 sequence (P09237 whole entry): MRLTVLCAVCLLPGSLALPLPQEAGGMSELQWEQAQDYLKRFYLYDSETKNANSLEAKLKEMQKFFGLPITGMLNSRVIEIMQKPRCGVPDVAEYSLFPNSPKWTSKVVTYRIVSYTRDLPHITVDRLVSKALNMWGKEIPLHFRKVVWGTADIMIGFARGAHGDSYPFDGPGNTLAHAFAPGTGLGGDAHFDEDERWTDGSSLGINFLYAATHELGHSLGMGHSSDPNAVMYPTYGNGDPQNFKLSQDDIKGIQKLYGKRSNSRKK

Interstitial collagenase = target: T2, Interstitial collagenase (Homo sapiens, UniProt P03956); format: cell-based, HT-1080
T2 sequence (P03956 whole entry): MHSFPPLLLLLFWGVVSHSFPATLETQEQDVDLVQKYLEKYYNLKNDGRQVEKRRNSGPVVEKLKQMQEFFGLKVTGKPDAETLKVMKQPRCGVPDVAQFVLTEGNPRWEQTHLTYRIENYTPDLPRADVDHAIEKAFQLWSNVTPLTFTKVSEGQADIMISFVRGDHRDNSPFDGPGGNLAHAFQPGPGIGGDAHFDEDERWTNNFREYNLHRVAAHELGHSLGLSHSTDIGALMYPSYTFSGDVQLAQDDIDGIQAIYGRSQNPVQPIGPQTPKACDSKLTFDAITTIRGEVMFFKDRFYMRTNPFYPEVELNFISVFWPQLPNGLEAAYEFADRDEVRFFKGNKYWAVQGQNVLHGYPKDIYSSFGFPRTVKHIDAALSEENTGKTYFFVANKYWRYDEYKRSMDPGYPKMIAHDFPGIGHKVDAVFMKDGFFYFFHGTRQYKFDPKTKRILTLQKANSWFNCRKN

Rattus norvegicus [2] = assay: Cardioprotective activity in rat myocardial infarction model assessed inhibition of left ventricular dilation at 10 mg/kg, po qd for 4 weeks (reference value: 0.59 +/- 0.02 mL); format: functional, Heart left ventricle
[3] = AUC (0 to infinity) in male mouse at 20 mg/kg, po after 24 hrs; format: ADME, organism-based; parameters: time infinity, dose 20 mg/kg, route oral; settings: plasma
[4] = Tmax in male rat at 20 mg/kg, po after 24 hrs; format: ADME, organism-based; parameters: dose 20 mg/kg, route oral; settings: in vivo
[5] = Tmax in female dog at 20 mg/kg, po after 24 hrs; format: ADME, organism-based, Canis lupus familiaris; parameters: dose 20 mg/kg, route oral; settings: in vivo
[6] = Cmax in male rat at 20 mg/kg, po after 24 hrs; format: ADME, organism-based; parameters: dose 20 mg/kg, route oral; settings: in vivo
Rattus norvegicus [7] = assay: Plasma concentration in rat at 20 mg/kg, po; format: ADME, organism-based; parameters: dose 20 mg/kg, route oral; settings: in vivo
Neutrophil collagenase = Neutrophil collagenase (Homo sapiens, UniProt P22894)
Sequence of Neutrophil collagenase (P22894 whole entry): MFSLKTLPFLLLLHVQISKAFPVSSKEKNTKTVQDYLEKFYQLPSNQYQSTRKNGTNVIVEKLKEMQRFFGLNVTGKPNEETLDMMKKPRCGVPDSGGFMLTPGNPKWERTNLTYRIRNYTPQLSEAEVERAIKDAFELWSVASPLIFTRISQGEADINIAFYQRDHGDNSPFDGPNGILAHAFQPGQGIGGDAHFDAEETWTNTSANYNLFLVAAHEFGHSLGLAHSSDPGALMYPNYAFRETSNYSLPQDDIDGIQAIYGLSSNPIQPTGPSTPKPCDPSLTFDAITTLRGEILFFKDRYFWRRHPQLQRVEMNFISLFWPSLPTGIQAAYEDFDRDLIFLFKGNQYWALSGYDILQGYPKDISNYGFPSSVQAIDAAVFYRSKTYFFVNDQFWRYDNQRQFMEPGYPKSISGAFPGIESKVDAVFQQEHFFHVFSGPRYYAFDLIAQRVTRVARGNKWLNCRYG

[8] = Tmax in female mouse at 20 mg/kg, po after 24 hrs; format: ADME, organism-based; parameters: dose 20 mg/kg, route oral; settings: in vivo
[9] = AUC (0 to infinity) in cynomolgus monkey at 20 mg/kg, po after 24 hrs; format: ADME, organism-based, Macaca fascicularis; parameters: dose 20 mg/kg, route oral, time infinity; settings: plasma
[10] = Cmax in male dog at 20 mg/kg, po after 24 hrs; format: ADME, organism-based, Canis lupus familiaris; parameters: dose 20 mg/kg, route oral; settings: in vivo
[11] = Tmax in male dog at 20 mg/kg, po after 24 hrs; format: ADME, organism-based, Canis lupus familiaris; parameters: dose 20 mg/kg, route oral; settings: in vivo
[12] = Oral bioavailability in female rat at 20 mg/kg after 24 hrs; format: ADME, organism-based; settings: in vivo
[13] = Half life in rat at 20 mg/kg, po; format: ADME, organism-based; parameters: dose 20 mg/kg, route oral; settings: in vivo
[14] = Oral bioavailability in cynomolgus monkey at 20 mg/kg after 24 hrs; format: ADME, organism-based, Macaca fascicularis; settings: in vivo
Mus musculus [15] = assay: Antiangiogenic activity in cornea of mouse bFGF-induced corneal micropocket model assessed as inhibition of angiogenesis at 5 mg/kg administered as BID; format: functional
[16] = Cmax in cynomolgus monkey at 20 mg/kg, po after 24 hrs; format: ADME, organism-based, Macaca fascicularis; parameters: dose 20 mg/kg, route oral; settings: in vivo
[17] = AUC (0 to infinity) in female mouse at 20 mg/kg, po after 24 hrs; format: ADME, organism-based; parameters: time infinity, dose 20 mg/kg, route oral; settings: plasma
[18] = Cmax in female rat at 20 mg/kg, po after 24 hrs; format: ADME, organism-based; parameters: dose 20 mg/kg, route oral; settings: in vivo
Collagenase 3 = Collagenase 3 (Homo sapiens, UniProt P45452)
[19] = Oral bioavailability in male rat at 20 mg/kg after 24 hrs; format: ADME, organism-based; settings: in vivo
[20] = Tmax in male mouse at 20 mg/kg, po after 24 hrs; format: ADME, organism-based; parameters: dose 20 mg/kg, route oral; settings: in vivo
[21] = Tmax in female rat at 20 mg/kg, po after 24 hrs; format: ADME, organism-based; parameters: dose 20 mg/kg, route oral; settings: in vivo
PC-3 [22] = assay: Antitumor activity against human PC3 cells xenografted in po dosed BALB/c nu/nu mouse assessed as tumor growth inhibition administered BID measured on 25 to 30 days; format: functional, organism-based
[23] = Cmax in female dog at 20 mg/kg, po after 24 hrs; format: ADME, organism-based, Canis lupus familiaris; parameters: dose 20 mg/kg, route oral; settings: in vivo
[24] = Oral bioavailability in rat at 20 mg/kg; format: ADME, organism-based; settings: in vivo
[25] = Oral bioavailability in male dog at 20 mg/kg after 24 hrs; format: ADME, organism-based, Canis lupus familiaris; settings: in vivo
[26] = Oral bioavailability in female mouse at 20 mg/kg after 24 hrs; format: ADME, organism-based; settings: in vivo
Stromelysin-1 = Stromelysin-1 (Homo sapiens, UniProt P08254)
Sequence of Stromelysin-1 (P08254 whole entry): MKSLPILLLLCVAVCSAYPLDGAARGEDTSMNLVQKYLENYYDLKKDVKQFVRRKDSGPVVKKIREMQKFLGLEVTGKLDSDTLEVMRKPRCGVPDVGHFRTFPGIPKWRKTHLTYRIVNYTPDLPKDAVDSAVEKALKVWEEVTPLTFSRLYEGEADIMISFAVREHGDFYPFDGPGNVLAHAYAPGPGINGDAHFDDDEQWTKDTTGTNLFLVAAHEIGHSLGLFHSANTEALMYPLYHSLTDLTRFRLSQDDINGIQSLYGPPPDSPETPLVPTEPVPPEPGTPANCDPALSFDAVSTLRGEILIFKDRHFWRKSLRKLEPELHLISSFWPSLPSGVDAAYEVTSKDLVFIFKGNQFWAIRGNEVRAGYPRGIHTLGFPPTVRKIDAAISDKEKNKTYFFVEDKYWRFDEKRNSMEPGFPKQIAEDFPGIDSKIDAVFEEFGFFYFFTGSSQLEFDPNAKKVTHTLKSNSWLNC

[27] = Oral bioavailability in male mouse at 20 mg/kg after 24 hrs; format: ADME, organism-based; settings: in vivo
[28] = Cmax in female mouse at 20 mg/kg, po after 24 hrs; format: ADME, organism-based; parameters: dose 20 mg/kg, route oral; settings: in vivo
[29] = Tmax in cynomolgus monkey at 20 mg/kg, po after 24 hrs; format: ADME, organism-based, Macaca fascicularis; parameters: dose 20 mg/kg, route oral; settings: in vivo
[30] = AUC (0 to infinity) in male rat at 20 mg/kg, po after 24 hrs; format: ADME, organism-based; parameters: time infinity, dose 20 mg/kg, route oral; settings: plasma
[31] = AUC (0 to infinity) in female dog at 20 mg/kg, po after 24 hrs; format: ADME, organism-based, Canis lupus familiaris; parameters: time infinity, dose 20 mg/kg, route oral; settings: plasma
[32] = Cmax in male mouse at 20 mg/kg, po after 24 hrs; format: ADME, organism-based; parameters: dose 20 mg/kg, route oral; settings: in vivo
[33] = AUC (0 to infinity) in female rat at 20 mg/kg, po after 24 hrs; format: ADME, organism-based; parameters: time infinity, dose 20 mg/kg, route oral; settings: plasma
[34] = AUC (0 to infinity) in male dog at 20 mg/kg, po after 24 hrs; format: ADME, organism-based, Canis lupus familiaris; parameters: time infinity, dose 20 mg/kg, route oral; settings: plasma
[35] = Cmax in rat at 20 mg/kg, po; format: ADME, organism-based; parameters: dose 20 mg/kg, route oral; settings: in vivo
[36] = target: 72 kDa type IV collagenase (Homo sapiens, UniProt P08253)
Sequence of 72 kDa type IV collagenase (P08253 whole entry): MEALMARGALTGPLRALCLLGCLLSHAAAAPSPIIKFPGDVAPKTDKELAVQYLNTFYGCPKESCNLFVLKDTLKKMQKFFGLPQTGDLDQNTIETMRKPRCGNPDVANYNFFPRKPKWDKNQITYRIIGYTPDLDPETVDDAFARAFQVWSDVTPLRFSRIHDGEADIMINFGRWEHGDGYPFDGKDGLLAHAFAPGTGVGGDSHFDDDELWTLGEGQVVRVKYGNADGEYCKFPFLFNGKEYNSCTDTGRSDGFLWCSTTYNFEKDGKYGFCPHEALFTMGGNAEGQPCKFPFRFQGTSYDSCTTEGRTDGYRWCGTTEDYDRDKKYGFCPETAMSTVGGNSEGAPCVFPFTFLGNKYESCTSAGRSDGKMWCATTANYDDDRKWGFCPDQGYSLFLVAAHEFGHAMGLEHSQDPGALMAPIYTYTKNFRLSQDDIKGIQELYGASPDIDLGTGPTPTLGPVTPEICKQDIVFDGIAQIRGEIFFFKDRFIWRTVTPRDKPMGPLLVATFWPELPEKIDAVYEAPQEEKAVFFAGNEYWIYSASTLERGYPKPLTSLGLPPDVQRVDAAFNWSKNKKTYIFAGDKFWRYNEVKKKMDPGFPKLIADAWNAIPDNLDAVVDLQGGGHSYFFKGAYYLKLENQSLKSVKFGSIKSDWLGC

PC-3 [37] = assay: Antitumor activity against human PC3 cells xenografted in BALB/c nu/nu mouse assessed as tumor growth inhibition at 100 mg/kg, po BID measured on 25 to 30 days relative to control; format: functional
PC-3 [38] = assay: Antitumor activity against human PC3 cells xenografted in BALB/c nu/nu mouse assessed as tumor growth inhibition at 25 mg/kg, po BID for 30 days measured on 25 to 30 days relative to control; format: functional
Mus musculus [39] = assay: Toxicity in mouse assessed as mortality administered bid for 90 days; format: organism-based; settings: in vivo, 2160 h
MX1 = assay: Antitumor activity against human MX1 cells xenografted in cyclophosphamide-treated nude mouse adjuvant model assessed as increase in mouse survival time at 6 to 50 mg/kg, po BID measured up to 90 days; format: functional, organism-based
Cartilage tissue = assay: Ex vivo inhibition of IL-1 and oncostatin M-induced bovine nasal cartilage degradation assessed as release of hydroxproline measured up to 16 days by mass spectrometry; format: functional, tissue-based; settings: Bos taurus, 384 h
Rattus norvegicus [40] = assay: Cardioprotective activity in rat myocardial infarction model assessed inhibition of left ventricular dilation at 50 mg/kg, po qd for 4 weeks (reference value: 0.69 +/- 0.02 mL); format: functional, Heart left ventricle
PC-3 [41] = assay: Antitumor activity against human PC3 cells xenografted in BALB/c nu/nu mouse assessed as tumor growth inhibition at 200 mg/kg, po BID measured on 25 to 30 days relative to control; format: functional

In the case of `COCCN1CCC(C(=O)NO)(S(=O)(=O)c2ccc(Oc3ccc(OC(F)(F)F)cc3)cc2)CC1`, the bioavailability [1] is reported as 69.2%, the IC50 (Matrilysin) is reported as 7 µM and the IC50 (Interstitial collagenase) is reported as greater than 10 µM. The Activity (Rattus norvegicus [2]) was 0.51 mL, the AUC(0-inf) [3] was 29.3 µg·h/mL and the Tmax [4] was 2 h. The Tmax [5] was 0.5 h, the Cmax [6] was 42400 ng/mL and the Cp (Rattus norvegicus [7]) was 20521 ng/mL. It also gave an IC50 (Neutrophil collagenase) of 0.0017 µM, a Tmax [8] of 0.167 h and an AUC(0-inf) [9] of 191 µg·h/mL. The Cmax [10] was 60600 ng/mL, the Tmax [11] was 0.833 h and the bioavailability [12] was 82.2%. For the same compound, the half-life [13] was 2.94 h, the bioavailability [14] was 53.8% and the inhibition in vivo at 5 mg/kg (Mus musculus [15]) was 60%. The Cmax [16] was 37100 ng/mL, the AUC(0-inf) [17] was 36.1 µg·h/mL and the Cmax [18] was 69800 ng/mL. The IC50 (Collagenase 3) was less than 0.0001 µM, the bioavailability [19] was 66.6% and the Tmax [20] was 0.167 h. For the same compound, the Tmax [21] was 4 h, the inhibition (PC-3 [22]) was “Dose-dependent effect” and the Cmax [23] was 68900 ng/mL. It also gave a bioavailability [24] of 67.9%, a bioavailability [25] of 64% and a bioavailability [26] of 80.8%. It also gave an IC50 (Stromelysin-1) of 0.0287 µM, a bioavailability [27] of 51.7% and a Cmax [28] of 41000 ng/mL. For the same compound, the Tmax [29] was 1.67 h, the AUC(0-inf) [30] was 273 µg·h/mL and the AUC(0-inf) [31] was 156 µg·h/mL. The Cmax [32] was 26600 ng/mL, the AUC(0-inf) [33] was 668 µg·h/mL and the AUC(0-inf) [34] was 228 µg·h/mL. It also gave a Cmax [35] of 29600 ng/mL and an IC50 [36] of less than 0.0001 µM.

In the case of `O=C(NO)C1(S(=O)(=O)c2ccc(Oc3ccc(OC(F)(F)F)cc3)cc2)CCN(C2CC2)CC1`, the IC50 (Matrilysin) is reported as 7 µM, the IC50 (Interstitial collagenase) is reported as 4 µM and the inhibition in vivo at 100 mg/kg (PC-3 [37]) is reported as 65%. The inhibition in vivo at 25 mg/kg (PC-3 [38]) was 49%, the Cp (Rattus norvegicus [7]) was 440 ng/mL and the Activity (Mus musculus [39]) was “Non-toxic”. For the same compound, the IC50 (Neutrophil collagenase) was 0.0012 µM, the Activity (MX1) was “Active” and the IC50 (Cartilage tissue) was 0.01 µM. For the same compound, the Activity (Rattus norvegicus [40]) was 0.62 mL, the half-life [13] was 2.85 h and the inhibition (PC-3 [22]) was “Dose-dependent effect”. The bioavailability [24] was 23%, the IC50 (Stromelysin-1) was 0.022 µM and the Cmax [35] was 4160 ng/mL. The IC50 [36] was less than 0.0001 µM and the inhibition in vivo at 200 mg/kg (PC-3 [41]) was 65%.
